pIC50: −log10 of the molar value.
Target: T1, acid ceramidase (Homo sapiens, UniProt Q13510)
T1 sequence (Q13510 22-395): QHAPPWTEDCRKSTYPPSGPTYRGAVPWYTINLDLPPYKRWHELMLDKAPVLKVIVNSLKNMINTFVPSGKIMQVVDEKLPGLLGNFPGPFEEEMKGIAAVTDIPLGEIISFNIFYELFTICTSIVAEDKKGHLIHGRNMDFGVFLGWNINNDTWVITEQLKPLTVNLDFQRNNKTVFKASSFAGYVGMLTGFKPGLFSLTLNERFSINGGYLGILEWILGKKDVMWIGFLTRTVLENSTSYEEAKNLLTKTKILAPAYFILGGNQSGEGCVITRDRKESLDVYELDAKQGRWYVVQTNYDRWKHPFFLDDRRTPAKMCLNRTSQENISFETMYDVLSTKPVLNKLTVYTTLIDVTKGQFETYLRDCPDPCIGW
Assay: Acid ceramidase fluorescent intensity assay with fluorogenic substrate Rbm 14-12
Format: biochemical
Details: cell lysates enriched with acid ceramidase; 1 hour preincubation; substrate Rbm 14-12 6.3 μM; pH 4.5; room temperature, 1 or two hours; read-out: average IC50 value for the 1 and 2 hour time points, inhibition of acid ceramidase activity
Method: Inhibition of acid ceramidase activity by compound 25 of Table 2 was evaluated in a fluorescent intensity assay using a fluorogenic substrate Rbm 14-12 […]. Compound 25 was incubated with cell lysates enriched with acid ceramidase for 1 hour in an assay buffer containing 50 mM NaOAc and 100 mM NaCl at pH 4.5. The reaction was initiated by the addition of the substrate at a final concentration of 6.3 μM and the mixture was incubated at room temperature for 1 or two hours. At the appropriate time, the reaction was quenched by the addition of methanol and treated with NaIO4 (fresh 2.5 mg/ml solution was made in 100 mM glycine/NaOH buffer, pH 10.6), followed by incubation for 1 hour at room temperature. Fluorescent intensity was measured using a plate reader at ex 355 nm and em 460 nm.

- pIC50: 6.30 to 6.60
Structure (SMILES): O=C(NCCCCc1ccccc1)n1c(=O)oc2cc(-c3ccc(F)cc3)ccc21 [Compound 25, 6-(4-fluorophenyl)-2-oxo-N-(4-phenylbutyl)-1,3-benzoxazole-3-carboxamide]
